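Where inhibition never reached the appropriate level, the endpoint shown equals the highest concentration tested. Otherwise, values were interpolated linearly from a five-concentration, 48-hour dose response in 96-well plates. GI50 marks 50% less growth. TGI: total growth inhibition.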
What was measured:
Experiment in all cases: growth of human tumour cells (NCI), 48 h; in the data active = GI50 below about 0.43 µM; inactive = the rest
OVCAR-5 ovarian = test system: OVCAR-5 ovarian
HCT-15 colon = test system: HCT-15 colon
KM12 colon = test system: KM12 colon
HT29 colon = test system: HT29 colon
OVCAR-3 ovarian = test system: OVCAR-3 ovarian
SF-295 CNS = test system: SF-295 CNS
MDA-MB-231 breast = test system: MDA-MB-231 breast
HCT-116 colon = test system: HCT-116 colon
CAKI-1 renal = test system: CAKI-1 renal
UO-31 renal = test system: UO-31 renal
SNB-75 CNS = test system: SNB-75 CNS
OVCAR-8 ovarian = test system: OVCAR-8 ovarian
EKVX NSCLC = test system: EKVX NSCLC
HCC-2998 colon = test system: HCC-2998 colon
SW-620 colon = test system: SW-620 colon
SF-539 CNS = test system: SF-539 CNS
786-0 renal = test system: 786-0 renal
PC-3 prostate = test system: PC-3 prostate
SK-MEL-2 melanoma = test system: SK-MEL-2 melanoma
SK-MEL-28 melanoma = test system: SK-MEL-28 melanoma
ACHN renal = test system: ACHN renal
OVCAR-4 ovarian = test system: OVCAR-4 ovarian
MDA-MB-435 = test system: MDA-MB-435
SN12C renal = test system: SN12C renal
NCI-H226 lung = test system: NCI-H226 lung
SNB-19 CNS = test system: SNB-19 CNS
HS 578T breast = test system: HS 578T breast
BT-549 breast = test system: BT-549 breast
NCI-H23 lung = test system: NCI-H23 lung
HOP-62 NSCLC = test system: HOP-62 NSCLC
T-47D breast = test system: T-47D breast
HL-60(TB) leukemia = test system: HL-60(TB) leukemia
SK-OV-3 ovarian = test system: SK-OV-3 ovarian
SR leukemia = test system: SR leukemia
NCI-H460 lung = test system: NCI-H460 lung
DU-145 prostate = test system: DU-145 prostate
MOLT-4 leukemia = test system: MOLT-4 leukemia
CCRF-CEM leukemia = test system: CCRF-CEM leukemia
SK-MEL-5 melanoma = test system: SK-MEL-5 melanoma
RPMI-8226 leukemia = test system: RPMI-8226 leukemia
COLO 205 colon = test system: COLO 205 colon
M14 melanoma = test system: M14 melanoma
A549 NSCLC = test system: A549 NSCLC
U251 CNS = test system: U251 CNS
K-562 leukemia = test system: K-562 leukemia
TK-10 renal = test system: TK-10 renal
MALME-3M melanoma = test system: MALME-3M melanoma
SF-268 CNS = test system: SF-268 CNS
MCF7 breast = test system: MCF7 breast
LOX IMVI melanoma = test system: LOX IMVI melanoma
NCI-H522 lung = test system: NCI-H522 lung
NCI/ADR-RES ovarian = test system: NCI/ADR-RES ovarian
HOP-92 NSCLC = test system: HOP-92 NSCLC
UACC-257 melanoma = test system: UACC-257 melanoma
A498 renal = test system: A498 renal
IGROV1 ovarian = test system: IGROV1 ovarian
UACC-62 melanoma = test system: UACC-62 melanoma

CS(=O)(=O)c1ccc2c(c1)C(=O)c1c-2n(CCCBr)c(=O)c2cc([N+](=O)[O-])ccc12
44.1 µM: TGI (HS 578T breast)
> 100 µM: TGI (OVCAR-5 ovarian) | TGI (HCT-15 colon) | TGI (KM12 colon) | TGI (HT29 colon) | TGI (OVCAR-3 ovarian) | TGI (MDA-MB-231 breast) | TGI (HCT-116 colon) | TGI (CAKI-1 renal) | TGI (UO-31 renal) | TGI (OVCAR-8 ovarian) | TGI (EKVX NSCLC) | TGI (HCC-2998 colon) | TGI (SW-620 colon) | TGI (SF-539 CNS) | TGI (786-0 renal) | TGI (PC-3 prostate) | TGI (SK-MEL-28 melanoma) | TGI (ACHN renal) | TGI (OVCAR-4 ovarian) | TGI (MDA-MB-435) | TGI (SN12C renal) | TGI (NCI-H226 lung) | TGI (SNB-19 CNS) | TGI (BT-549 breast) | TGI (NCI-H23 lung) | TGI (HOP-62 NSCLC) | TGI (T-47D breast) | TGI (HL-60(TB) leukemia) | TGI (SK-OV-3 ovarian) | TGI (SR leukemia) | TGI (NCI-H460 lung) | TGI (DU-145 prostate) | TGI (MOLT-4 leukemia) | TGI (COLO 205 colon) | TGI (M14 melanoma) | TGI (A549 NSCLC) | TGI (U251 CNS) | TGI (K-562 leukemia) | TGI (TK-10 renal) | TGI (MALME-3M melanoma) | TGI (SF-268 CNS) | TGI (MCF7 breast) | TGI (LOX IMVI melanoma) | TGI (NCI-H522 lung) | TGI (NCI/ADR-RES ovarian) | TGI (UACC-257 melanoma) | TGI (IGROV1 ovarian) | TGI (UACC-62 melanoma)
42.8 µM: TGI (RPMI-8226 leukemia)
30.7 µM: TGI (CCRF-CEM leukemia)
33.5 µM: TGI (SF-295 CNS)
inactive: GI50 (OVCAR-5 ovarian) > 100 µM | GI50 (HCT-15 colon) 48.9 µM | GI50 (KM12 colon) > 100 µM | GI50 (HT29 colon) 29.5 µM | GI50 (OVCAR-3 ovarian) 28.8 µM | GI50 (SF-295 CNS) 2.07 µM | GI50 (MDA-MB-231 breast) 51.1 µM | GI50 (HCT-116 colon) 7.44 µM | GI50 (CAKI-1 renal) 16.4 µM | GI50 (UO-31 renal) 3.12 µM | GI50 (SNB-75 CNS) 12.8 µM | GI50 (OVCAR-8 ovarian) 29.3 µM | GI50 (EKVX NSCLC) > 100 µM | GI50 (HCC-2998 colon) 24.8 µM | GI50 (SW-620 colon) 0.683 µM | GI50 (SF-539 CNS) 24 µM | GI50 (786-0 renal) 6.07 µM | GI50 (PC-3 prostate) 9.94 µM | GI50 (SK-MEL-2 melanoma) 19.6 µM | GI50 (SK-MEL-28 melanoma) > 100 µM | GI50 (ACHN renal) 4.98 µM | GI50 (OVCAR-4 ovarian) 47.4 µM | GI50 (MDA-MB-435) 82.6 µM | GI50 (SN12C renal) 6.88 µM | GI50 (NCI-H226 lung) 26.5 µM | GI50 (SNB-19 CNS) 6.03 µM | GI50 (HS 578T breast) 4.98 µM | GI50 (BT-549 breast) 26.7 µM | GI50 (NCI-H23 lung) 7.87 µM | GI50 (HOP-62 NSCLC) 8.14 µM | GI50 (T-47D breast) 4.88 µM | GI50 (HL-60(TB) leukemia) 3.37 µM | GI50 (SK-OV-3 ovarian) 7.58 µM | GI50 (SR leukemia) 1.06 µM | GI50 (NCI-H460 lung) 0.718 µM | GI50 (DU-145 prostate) 6.25 µM | GI50 (MOLT-4 leukemia) 1.94 µM | GI50 (CCRF-CEM leukemia) 0.758 µM | GI50 (SK-MEL-5 melanoma) 1.91 µM | GI50 (RPMI-8226 leukemia) 1.68 µM | GI50 (COLO 205 colon) > 100 µM | GI50 (M14 melanoma) 7.11 µM | GI50 (A549 NSCLC) 7.34 µM | GI50 (U251 CNS) 8.76 µM | GI50 (K-562 leukemia) 5.15 µM | GI50 (TK-10 renal) 40.2 µM | GI50 (MALME-3M melanoma) 69.6 µM | GI50 (SF-268 CNS) 9.59 µM | GI50 (MCF7 breast) 0.992 µM | GI50 (LOX IMVI melanoma) 5.77 µM | GI50 (NCI-H522 lung) 4.87 µM | GI50 (NCI/ADR-RES ovarian) 27.3 µM | GI50 (HOP-92 NSCLC) 10.9 µM | GI50 (UACC-257 melanoma) 43.7 µM | GI50 (IGROV1 ovarian) 13.6 µM | GI50 (UACC-62 melanoma) 4.26 µM
42.2 µM: TGI (SNB-75 CNS)
15.8 µM: TGI (SK-MEL-5 melanoma)
43.8 µM: TGI (SK-MEL-2 melanoma)
active: GI50 (A498 renal) 0.127 µM
14.8 µM: TGI (A498 renal)
40 µM: TGI (HOP-92 NSCLC)

c1ccc(COCC[P+](c2ccccc2)(c2ccccc2)c2ccccc2)cc1
17.9 µM: TGI (HS 578T breast)
23.1 µM: TGI (CAKI-1 renal) | TGI (SF-268 CNS)
10.7 µM: TGI (SNB-19 CNS) | TGI (NCI-H460 lung)
11.7 µM: TGI (U251 CNS)
5.93 µM: TGI (A498 renal)
12.2 µM: TGI (SK-MEL-28 melanoma) | TGI (OVCAR-4 ovarian)
21.6 µM: TGI (T-47D breast)
12.5 µM: TGI (HCT-116 colon)
6.28 µM: TGI (MDA-MB-435)
13.4 µM: TGI (M14 melanoma)
28.4 µM: TGI (UO-31 renal)
4.17 µM: TGI (NCI-H522 lung)
29.8 µM: TGI (NCI-H226 lung)
1.39 µM: TGI (HL-60(TB) leukemia)
6.05 µM: TGI (LOX IMVI melanoma)
11.9 µM: TGI (IGROV1 ovarian)
> 100 µM: TGI (OVCAR-5 ovarian) | TGI (HCT-15 colon)
26.2 µM: TGI (DU-145 prostate)
6.64 µM: TGI (SF-295 CNS)
11.1 µM: TGI (KM12 colon)
active: GI50 (T-47D breast) 0.259 µM | GI50 (HL-60(TB) leukemia) 0.29 µM | GI50 (SK-MEL-5 melanoma) 0.396 µM | GI50 (RPMI-8226 leukemia) 0.242 µM | GI50 (K-562 leukemia) 0.383 µM | GI50 (UACC-257 melanoma) 0.378 µM
11.3 µM: TGI (SN12C renal)
3.77 µM: TGI (UACC-257 melanoma)
17.8 µM: TGI (OVCAR-3 ovarian)
14.1 µM: TGI (CCRF-CEM leukemia)
inactive: GI50 (OVCAR-5 ovarian) 2.85 µM | GI50 (HCT-15 colon) 14.2 µM | GI50 (KM12 colon) 0.501 µM | GI50 (HT29 colon) 0.478 µM | GI50 (OVCAR-3 ovarian) 1.07 µM | GI50 (SF-295 CNS) 1.39 µM | GI50 (MDA-MB-231 breast) 2.36 µM | GI50 (HCT-116 colon) 0.679 µM | GI50 (CAKI-1 renal) 5.4 µM | GI50 (UO-31 renal) 4.82 µM | GI50 (SNB-75 CNS) 1.44 µM | GI50 (OVCAR-8 ovarian) 1.67 µM | GI50 (SW-620 colon) 1.83 µM | GI50 (SF-539 CNS) 2.4 µM | GI50 (786-0 renal) 3.49 µM | GI50 (PC-3 prostate) 0.519 µM | GI50 (SK-MEL-2 melanoma) 1.93 µM | GI50 (SK-MEL-28 melanoma) 1.59 µM | GI50 (ACHN renal) 4.56 µM | GI50 (OVCAR-4 ovarian) 0.444 µM | GI50 (MDA-MB-435) 0.601 µM | GI50 (SN12C renal) 2.3 µM | GI50 (NCI-H226 lung) 1.22 µM | GI50 (SNB-19 CNS) 1.03 µM | GI50 (HS 578T breast) 2.81 µM | GI50 (BT-549 breast) 0.953 µM | GI50 (NCI-H23 lung) 0.664 µM | GI50 (HOP-62 NSCLC) 3.59 µM | GI50 (SK-OV-3 ovarian) 2.33 µM | GI50 (SR leukemia) 0.725 µM | GI50 (NCI-H460 lung) 1.5 µM | GI50 (DU-145 prostate) 2.01 µM | GI50 (MOLT-4 leukemia) 2.1 µM | GI50 (CCRF-CEM leukemia) 1.36 µM | GI50 (COLO 205 colon) 0.868 µM | GI50 (M14 melanoma) 2.12 µM | GI50 (A549 NSCLC) 0.584 µM | GI50 (U251 CNS) 0.869 µM | GI50 (SF-268 CNS) 3.17 µM | GI50 (MCF7 breast) 0.564 µM | GI50 (LOX IMVI melanoma) 1.87 µM | GI50 (NCI-H522 lung) 0.467 µM | GI50 (NCI/ADR-RES ovarian) 19.7 µM | GI50 (A498 renal) 1.33 µM | GI50 (IGROV1 ovarian) 1.08 µM
10.1 µM: TGI (A549 NSCLC)
7.27 µM: TGI (MCF7 breast)
1.61 µM: TGI (SK-MEL-5 melanoma)
9.93 µM: TGI (SK-OV-3 ovarian)
12.4 µM: TGI (MOLT-4 leukemia)
4.96 µM: TGI (SK-MEL-2 melanoma)
32.4 µM: TGI (HOP-62 NSCLC)
57.1 µM: TGI (NCI/ADR-RES ovarian)
1.9 µM: TGI (RPMI-8226 leukemia)
14.2 µM: TGI (MDA-MB-231 breast)
6.75 µM: TGI (NCI-H23 lung)
11 µM: TGI (SR leukemia)
16 µM: TGI (K-562 leukemia)
15.6 µM: TGI (786-0 renal)
3.65 µM: TGI (COLO 205 colon)
14.5 µM: TGI (SF-539 CNS)
6.76 µM: TGI (SNB-75 CNS)
5.32 µM: TGI (PC-3 prostate)
8.3 µM: TGI (HT29 colon)
23.5 µM: TGI (ACHN renal)
37.7 µM: TGI (SW-620 colon)
10.8 µM: TGI (OVCAR-8 ovarian)
15.5 µM: TGI (BT-549 breast)

Reference: PubChem BioAssay (NCI)
